Series [1] concerns Escherichia coli ATCC 11229. In words: Low temperature warewash sanitizing rinse test. It is filed as cell-based. Conditions: anionic surfactant paired with quaternary ammonium compound, in this study. The protocol: The sanitizing efficiency was determined for the experimental formulas of Table 8A-8B using the following procedure: • 1.) Set up low temperature ware wash machine to our specific settings (see 7-cycle procedure) • a. Set water Temperature (120° F.) • b. Check water Hardness (4-6 gpg) • c. Set water flow rate • d. Hand dose in chemistry, no need to set up (50 ppm Quat, 50 ppm Bleach) • e. Watch these variables throughout tests • 2.) Have 10 processed Libby glasses for each tested chemistry run • a. 5 will be unwashed controls • b. 5 will be washed to detect kill • 3.) Have enough sterile tubs to hold glasses—supplied by Micro • a. Max 20 glasses per tub, or 2 runs • 4.) Have enough swabs to collect specimen—supplied by Micro • a. Need 2 per run or 1 swab per 5 glasses • 5.) Have 1 buffer solution tube per 5 glasses, 2 per run • 6.) Have Micro bring in an E. coli suspension • 7.) Get 10 glasses ready in easy reach • 8.) Fill one glass, an inch from the top, with E. coli suspension • a. Start timer for 10 minutes at this point • 9.) Pour E. coli Suspension from first glass into second glass, from second glass into third, and so on • 10.) Dip the top inch of each soiled glass into E. coli suspension to coat rim • 11.) Set glasses upside down in a sterile tub and let dry for 10 minutes • 12.) Swab 5 of the 10 glasses as your test control group • a. […]

Series [2] can be described thus: Dynamic surface tension (SITA science line t60, bubble pressure). The series is classed as physicochemical. The protocol:
The SITA science line t60 measures the dynamic surface tension of liquids up to the semi-static range. Air bubbles are generated from a capillary with known radius. The bubble pressure is measured as a function of bubble life time, which can be correlated to the surface tension according to the Young-Laplace equation. […] The dynamic surface tension behavior of surfactants is particularly important in applications where a quick response of surfactant is required, for example, in short rinse cycles of automated dishwashing.
The SITA science line t60 was calibrated with DI water. […] Following calibration, the SITA was programmed to take readings at the desired time intervals (i.e., 0.3, 1.6, 3.0, 9.1 seconds).
10-15 mL were transferred into 20 mL vials and immersed in a water bath to 25° C.±2° C. The samples were equilibrated for 10-15 minutes. The samples were individually tested. After each sample was tested the SITA's cleaning procedure was run, then the surface tension of DI water was checked to ensure the SITA was adequately clean. If the DI water measurements were not within 72.0±1.0 mN/m, then the cleaning procedure was run again. […]

Series [3] can be described thus: Glewwe foam test. It is filed as physicochemical. The protocol:
A test was run to determine the foam profiles of the five quat solutions of Example 1. A Glewwe foam apparatus in combination with the following procedure was used for this test. First, each quat was prepared and gently poured into a Glewwe cylinder. Samples tested contained a concentration of 50 ppm of the indicated antimicrobial quats. A ruler was attached to the side of the cylinder, and the solution was level with the bottom of the ruler. The pump was turned on. Foam height was estimated by reading the average level of foaming according to the ruler. Foam height readings were taken versus time with a stopwatch or timer. The pump was turned off and height of the foam was recorded at various times. […] The foam level was read after 15 seconds of agitation and again after 60 seconds of agitation for a given amount of time. A stable foam is defined when the foam remains for several minutes after agitation is stopped. A partially stable foam breaks slowly within a minute. An unstable foam breaks rapidly in less than 15 seconds. A desirable rinse should have unstable foam to no foam. In contrast, antimicrobial hand soap should have stable foam.
The results from the foaming test are shown in FIG. 2, and described in Table 3 below.
Another foam evaluation test was run using the procedure described in Example 2.
The inclusion of additional additives (defoamer and solubilizer/booster, such as Emulsogen) to the Quat-Anionic surfactant pairs were also analyzed, provided in Table 5 below (5A-5B), using the procedure described in Example 2.

Entries after “also recorded” stand apart in the source; their conditions may differ. Where two headings read alike, the source gives them in different places.

`CCCCCCCCCC(=O)O` [Decanoic acid]: the “antimicrobial synergy with quat, in words” value in series [1] is “best antimicrobial synergy”.
On the same count and under the same terms, the entry for `CCCCCCCC(=O)O` [Octanoic acid] is “best antimicrobial synergy”.
For “Alkyl Benzyl ammonium chloride [Uniquat QAC-50]”, the “Dynamic Surface Activity” value in series [2] (ranking 1-5 among five quats, 100 ppm quat, 75° F.) was 3. Further, in series [3] (ranking 1-5, Glewwe Foam Test, 50 ppm Quat, 6psi, 140° F.), the “Foaming Profile” value is recorded as 1.
Regarding “Didecyl (C10) dimethyl ammonium chloride [Bardac 2250]”, the “Dynamic Surface Activity” value in series [2] worked out at 1. The “Foaming Profile” value in series [3] is 3.
“Dioctyl (C8) dimethyl ammonium chloride [Bardac LF80]”: in series [2], the “Dynamic Surface Activity” value was 5; the Dynamic surface tension is 69 mN/m; the “dynamic surface tension / surface activity, in words” value is on record as “least surface active; also recorded: very low surface activity; also recorded: very little surface activity”. In series [3], the “Foaming Profile” value amounted to 5 and the “foam profile, in words” value is “lowest foam profile”.

For the origin of these results see US11406103B2, “Sanitizing rinse based on quat-anionic surfactant synergy” (Ecolab USA Inc., priority 2016, dated 2022).
